Here are results for seven compounds from patent US5235061A, “Fungicidal (1H-1,2,4-triazolyl)disilaalkanes” (priority 1991, dated 1993).

Holding throughout (experiment): In vitro percent disease control (radii of spore growth on agar)
What all share (type): cell-based

For series [1], the system named is Botry tris cinerea. To be noted: for inhibition of growth at 50 ppm / inhibition of growth at 100 ppm: read-out: % controlled, Bo ci. On the procedure: (§1) The compounds of this invention were dissolved respectively in acetone in an amount equal to 10% of the final volume and then in purified water at the concentration of 100 ppm and 50 ppm.
(§2) Each of the solution was mixed with potato-sucrose-agar medium in a 6" petri dish and one of the fungi was spotted at the center of the dish. The dish was incubated in growth room for several days. The percent disease control was derived from the radii of spore growth. The screening tests in vitro condition are well-known to those skilled in the art.
(§3) The following fungi were used for the screening.
10) Bo.ci.; Botry tris cinerea

Series [2] has as its system Fusarium moniliforme. On the procedure:
as §1, §2, §3
8) Fu.mo.; Fusarium moniliforme

The subject of series [3] is Phytophthora capsisi. The following applies: Phytophthora, read-out: % controlled, Phy ca. On the procedure: as §1, §2, §3
2) Phy. ca.; Phytophthora capsisi

The subject of series [4] is Botryosphaeria dothidea Macrophoma sp. To be noted: for inhibition of growth at 50 ppm / inhibition of growth at 100 ppm: Botryosphaeria dothidea, read-out: % controlled, Bo.do (Ma.). On the procedure:
as §1, §2, §3
4) Bo.do(Ma); Botryosphaeria dothidea Macrophoma sp.

Series [5] has as its system Alternaria mali. To be noted: for inhibition of growth at 50 ppm / inhibition of growth at 100 ppm: Alternaria mali, read-out: % controlled, Al. On the procedure: as §1, §2, §3
In series [6] the test system is Rhizopus sp. The following applies: for inhibition of growth at 50 ppm / inhibition of growth at 100 ppm: Rhizopus, read-out: % controlled, Rhi. sp. On the procedure:
as §1, §2, §3

The subject of series [7] is Glomerella cingulata. To be noted: for inhibition of growth at 50 ppm / inhibition of growth at 100 ppm: Colletotrichum gloeosporioides, read-out: % controlled, Glo. On the procedure:
as §1, §2, §3
5) Glo.; Glomerella cingulata

For series [8], the system named is Physalospora baccae. To be noted: for inhibition of growth at 50 ppm / inhibition of growth at 100 ppm: read-out: % controlled, Phy ba. On the procedure:
as §1, §2, §3
3) Phy. ba.; Physalospora baccae

For series [9], the system named is Pyricalaria oryzae. The following applies: for inhibition of growth at 50 ppm: read-out: % controlled, Py. or., 50 ppm; for inhibition of growth at 100 ppm: read-out: % controlled, Py. or., 100 ppm. On the procedure:
as §1, §2, §3
6) Py.or.; Pyricalaria oryzae

In series [10] the test system is Rhizoctonia solani. The following applies: for inhibition of growth at 50 ppm / inhibition of growth at 100 ppm: Rhizoctonia solani, read-out: % controlled, Rhy. so. On the procedure: as §1, §2, §3
7) Rhi.so.; Rhizoctonia solani

“And” between values parts separate entries of the source, which are not always exact repeats. Equal values may be shown once.

On to `C=CC[Si](CC=C)(Cn1cncn1)C[Si](CC=C)(CC=C)c1ccccc1` [6-phenyl-4,6-bis(2-propenyl)-4,6-disila-4-(1H-1,2,4-triazol-1-ylmethyl)-1,8-nonadiene], for which the inhibition of growth at 50 ppm turned out to be 80% in series [1] (50 ppm); 60% in series [3]; 65% in series [4] (50 ppm); 75% in series [5] (50 ppm); 50% in series [6] (50 ppm); 70% in [7] (50 ppm). For the same compound, the inhibition of growth at 50 ppm in series [8] (50 ppm) and in series [9] was 60% each time. In addition, the inhibition of growth at 100 ppm in series [1] (100 ppm) is 96%; in [3], 70%; in series [4] (100 ppm), 70%; in series [5] (100 ppm) it was 79%; in [6] (100 ppm), 50%; in series [7] (100 ppm), 87%. Also, the inhibition of growth at 100 ppm in [8] (100 ppm) came out at 69%; in series [9], 90%. Moreover, the “% controlled, Fu. mo.” value in [2] (50 ppm) and in series [2] (100 ppm) was 46% throughout.
As to `C=CC[Si](Cn1cncn1)(C[Si](CC=C)(c1ccc(F)cc1)c1ccc(-c2ccccc2)cc1)c1ccc(F)cc1` (stereo not drawn) [4,6-(4-fluorophenyl)-6-(4-phenylphenyl)-4,6-disila-4-(1H-1,2,4-triazol-1-ylmethyl)-1,8-nonadiene], the inhibition of growth at 50 ppm in [10] (50 ppm) amounted to 90%; in [3] it was 75%; in [4] (50 ppm) it was 79%; in [5] (50 ppm), 62%; in series [6] (50 ppm) it was 56%; in series [7] (50 ppm), 85%. The inhibition of growth at 50 ppm in [8] (50 ppm) was determined as 60%; in [9] it was 100%. For the same compound, the inhibition of growth at 100 ppm in [10] (100 ppm) came to 96%; in series [3] it was 75%; in series [4] (100 ppm), 79%; in series [5] (100 ppm), 65%; in series [6] (100 ppm) it was 56%; in [7] (100 ppm), 87%. Also, the results for the inhibition of growth at 100 ppm in series [8] (100 ppm) and in series [9] were 65% and 100%, respectively. The “% controlled, Fu. mo.” value in series [2] (50 ppm) was determined as 40%; in [2] (100 ppm) it was 46%.
Take `C=CC[Si](C)(Cn1cncn1)C[Si](CC=C)(c1ccc(OCC)cc1)c1ccc(OCC)cc1` (stereo not drawn) [6,6-bis(4-ethoxyphenyl)-4-methyl-4,6-disila-4-(1H-1,2,4-triazol-1-ylmethyl)-1,8-nonadiene]: the inhibition of growth at 50 ppm in series [1] (50 ppm) was 100%; in series [10] (50 ppm), 100%; in series [3], 55%; in [4] (50 ppm) it was 70%; in series [5] (50 ppm), 100%; in series [6] (50 ppm), 80%. Further, the inhibition of growth at 50 ppm in [7] (50 ppm) and in series [9] was 100% in each case. Moreover, the inhibition of growth at 100 ppm in [1] (100 ppm) is 100%; in series [10] (100 ppm) it was 100%; in series [3], 60%; in [4] (100 ppm), 72%; in [5] (100 ppm), 100%; in series [6] (100 ppm) it was 80%. Also, the inhibition of growth at 100 ppm in series [7] (100 ppm) and in [9] was 100% in each case. The “% controlled, Fu. mo.” value in series [2] (50 ppm) and in series [2] (100 ppm) was 100% throughout.
With “2-(4-chlorophenyl)-2-(4-fluorophenyl)-2,4-dimethyl-1-(1H-1,2,4-triazol-1-yl)pentane”, the “% controlled, Bo ci.” value in series [1] (50 ppm) and in series [1] (100 ppm) was 90% each time. Also, the “% controlled, Rhy. so.” value in series [10] (50 ppm) and in series [10] (100 ppm) was 96% each time. Moreover, the “% controlled, Fu. mo.” value in [2] (50 ppm) and in [2] (100 ppm) was 46% throughout. Besides, the “% controlled, Bo.do (Ma.)” value in [4] (50 ppm) and in series [4] (100 ppm) was 79% each time. The results for the “% controlled, Al.” value in series [5] (50 ppm) and in series [5] (100 ppm) were 75% and 79%, respectively. The “% controlled, Rhi. sp.” value in [6] (50 ppm) and in series [6] (100 ppm) was 50% throughout. Besides, the “% controlled, Glo.” value in series [7] (50 ppm) and in series [7] (100 ppm) was 87% throughout. Moreover, the “% controlled, Phy ba.” value in [8] (50 ppm) and in series [8] (100 ppm) was 69% each time. Also, the “% controlled, Py. or.” value in series [9] (50 ppm) and in series [9] (100 ppm) was 100% in each case.
Regarding `C[Si](C)(C)C[Si](Cn1cncn1)(c1ccc(F)cc1)c1ccc(F)cc1` [2,2-bis(4-fluorophenyl)-4,4-dimethyl-2,4-disila-1-(1H-1,2,4-triazol-1-yl)pentane], the inhibition of growth at 50 ppm in [10] (50 ppm) was 60%; in series [3], 6%; in series [4] (50 ppm), 31%; in series [5] (50 ppm), 32%; in series [6] (50 ppm), 24%; in [7] (50 ppm), 60%. For the same compound, the inhibition of growth at 50 ppm in series [8] (50 ppm) was determined as 20%; in series [9] it was 57%. Moreover, the inhibition of growth at 100 ppm in series [10] (100 ppm) worked out at 67%; in [3], 6%; in series [4] (100 ppm), 37%; in series [5] (100 ppm) it was 35%; in series [6] (100 ppm), 29%; in [7] (100 ppm) it was 67%. In addition, the inhibition of growth at 100 ppm in series [8] (100 ppm) amounted to 24%; in series [9], 61%. The “% controlled, Fu. mo.” value in series [2] (50 ppm) stood at 31%; in series [2] (100 ppm), 34%.
As to `C=CC[Si](C[Si](C)(Cn1cncn1)c1ccc(F)cc1)(c1ccccc1)c1ccc(-c2ccccc2)cc1` (stereo not drawn), the inhibition of growth at 50 ppm in [1] (50 ppm) is 86%; in series [3] it was 27%; in series [4] (50 ppm), 100%; in [5] (50 ppm), 78%; in series [6] (50 ppm), 100%; in series [7] (50 ppm), 100%. For the same compound, the inhibition of growth at 50 ppm in series [8] (50 ppm) turned out to be 100%; in [9], 85%. Moreover, the inhibition of growth at 100 ppm in [1] (100 ppm) turned out to be 100%; in series [3], 50%; in series [4] (100 ppm), 100%; in series [5] (100 ppm) it was 100%; in series [6] (100 ppm), 100%; in [7] (100 ppm) it was 100%. In addition, the inhibition of growth at 100 ppm in [8] (100 ppm) and in series [9] was 100% each time. For the same compound, the “% controlled, Fu. mo.” value in series [2] (50 ppm) and in [2] (100 ppm) was 100% each time.
`C[Si](C)(C[Si](Cn1cncn1)(c1ccc(F)cc1)c1ccc(-c2ccccc2)cc1)c1ccc(F)cc1` (stereo not drawn) [2,4-bis(4-fluorophenyl)-2-(4-phenylphenyl)-4-methyl-2,4-disila-1-(1H-1,2,4-triazol-1-yl)pentane]: the “% controlled, Bo ci.” value in series [1] (100 ppm) was 90% and 47%. The “% controlled, Fu. mo.” value in series [2] (50 ppm) is 46% and 41%; in series [2] (100 ppm) it was 46% and 45%. In addition, the inhibition of growth at 50 ppm was 12% in series [3] and 87% in [7] (50 ppm). Also, the inhibition of growth at 100 ppm in series [3] was 14%; in series [7] (100 ppm), 87%. The “% controlled, Bo.do (Ma.)” value is 79% and 43% in series [4] (50 ppm); 79% and 51% in series [4] (100 ppm). The “% controlled, Al.” value is 75% and 38% in [5] (50 ppm); 79% and 46% in series [5] (100 ppm). The “% controlled, Glo.” value in [7] (50 ppm) came out at 76%; in series [7] (100 ppm), 78%. In addition, the “% controlled, Py. or.” value in series [9] (50 ppm) is 100% and 50%; in [9] (100 ppm), 100% and 50%.
